From patent publication US20220380385A1, “PYRIMIDINE FIVE-MEMBERED NITROGEN HETEROCYCLIC DERIVATIVE, PREPARATION METHOD THEREOF AND PHARMACEUTICAL USE THEREOF” (TUOJIE BIOTECH(SHANGHAI) CO., LTD., priority 2019, published 2022)
Values belong to the molecule of their own block, whether it stands above or below them.

Columns and labels:
[1] = molecular target: T1, CYP1A2 (Homo sapiens, UniProt P05177); assay: CYP inhibition in mixed human liver microsomes, CYP1A2 (phenacetin); format: in vitro ADME; conditions: mixed human liver microsomes 0.2 mg/mL, phenacetin; read-out: Median inhibitory concentration (IC50) CYP 1A2
T1 construct: Mixed human liver microsomes from 150 donors; tissue Corning 452117; host or cells: pooled human liver microsomes (150 donors)
T1 sequence (P05177 1-516): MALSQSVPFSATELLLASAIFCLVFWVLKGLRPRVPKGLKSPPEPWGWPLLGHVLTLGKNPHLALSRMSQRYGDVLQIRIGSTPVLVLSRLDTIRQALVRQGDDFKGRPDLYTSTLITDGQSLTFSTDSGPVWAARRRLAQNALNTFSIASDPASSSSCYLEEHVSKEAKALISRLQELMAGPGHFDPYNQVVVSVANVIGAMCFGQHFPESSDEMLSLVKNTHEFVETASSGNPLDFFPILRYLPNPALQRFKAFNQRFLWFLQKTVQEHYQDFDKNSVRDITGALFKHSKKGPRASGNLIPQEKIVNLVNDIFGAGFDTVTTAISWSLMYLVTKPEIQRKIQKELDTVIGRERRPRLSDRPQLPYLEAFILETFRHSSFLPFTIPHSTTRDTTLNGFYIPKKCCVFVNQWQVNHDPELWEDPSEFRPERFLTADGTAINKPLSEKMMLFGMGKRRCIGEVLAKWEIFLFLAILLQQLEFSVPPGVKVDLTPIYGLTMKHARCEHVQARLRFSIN
Procedure: (§1) Mixed human liver microsomes from 150 donors (purchased from Corning, catalog number 452117) were used to evaluate the representative substrate metabolic responses of the five main human CYP subtypes (CYP1A2, CYP2C9, CYP2C19, CYP2D6 and CYP3A4/5). The influence of different concentrations of test compounds on the metabolic responses of phenacetin (CYP1A2), diclofenac sodium (CYP2C9), S-mephenytoin (CYP2C19), bufurolol hydrochloride (2D6) and midazolam (CYP3A4/5) was determined by liquid chromatography tandem mass spectrometry (LC/MS/MS).
(§2) 200 μL of the reaction system (100 mmol/L phosphate buffer, pH 7.4, containing 0.3% DMSO, 0.6% acetonitrile and 0.1% methanol by volume respectively) with 30 µM phenacetin, 10 μM diclofenac sodium, 35 μM S-mephenytoin, 5 μM bufurolol hydrochloride, 3 μM midazolam, 1 mM NADPH, test compound (at a concentration of 0.1, 0.3, 1, 3, 10 and 30 μmol/L respectively) or positive compound or blank control and mixed human liver microsomes (0.2 mg/mL) was incubated at 37° C. for 5 minutes. […]
(§3) The peak area was calculated based on the chromatograms. The residual activity ratio (%) was calculated using the following equation: […]
(§4) The CYP median inhibitory concentration (IC50) was calculated by Excel XLfit 5.3.1.3.

[2] = molecular target: T2, CYP2C19 (Homo sapiens, UniProt P33261); assay: CYP inhibition in mixed human liver microsomes, CYP2C19 (S-mephenytoin); format: in vitro ADME; conditions: mixed human liver microsomes 0.2 mg/mL, S-mephenytoin; read-out: Median inhibitory concentration (IC50) CYP 2C19
T2 construct: Mixed human liver microsomes from 150 donors; tissue Corning 452117; host or cells: pooled human liver microsomes (150 donors)
Procedure: as §1, §2, §3, §4

[3] = molecular target: T3, CYP2C9 (Homo sapiens, UniProt P11712); assay: CYP inhibition in mixed human liver microsomes, CYP2C9 (diclofenac sodium); format: in vitro ADME; conditions: mixed human liver microsomes 0.2 mg/mL, diclofenac sodium; read-out: Median inhibitory concentration (IC50) CYP 2C9
T3 construct: Mixed human liver microsomes from 150 donors; tissue Corning 452117; host or cells: pooled human liver microsomes (150 donors)
Procedure: as §1, §2, §3, §4

[4] = molecular target: T4, CYP2D6 (Homo sapiens, UniProt P10635); assay: CYP inhibition in mixed human liver microsomes, CYP2D6 (bufurolol hydrochloride); format: in vitro ADME; conditions: mixed human liver microsomes 0.2 mg/mL, bufurolol hydrochloride; read-out: Median inhibitory concentration (IC50) CYP 2D6
T4 construct: Mixed human liver microsomes from 150 donors; tissue Corning 452117; host or cells: pooled human liver microsomes (150 donors)
Procedure: as §1, §2, §3, §4

[5] = tested on: CYP3A4/5; assay: CYP inhibition in mixed human liver microsomes, CYP3A4/5 (midazolam); format: in vitro ADME; conditions: mixed human liver microsomes (150 donors), pH 7.4, probe midazolam (3 μM), mixed human liver microsomes 0.2 mg/mL, read-out: Median inhibitory concentration (IC50) CYP 3A4/5
Procedure: as §1, §2, §3, §4

[6] = In vivo pharmacokinetics in rats (gavage); parameters: species or system SD rats; conditions: original drug, rat, 7.5 mpk
Procedure: (§5) Rats were used as the test animals. The plasma drug concentration at different times after the rats were given the compounds of the invention by gavage was determined by using the LC/MS/MS method. The in vivo pharmacokinetic behavior of the compounds of the present invention in rats was studied, and pharmacokinetic characteristics thereof were evaluated.
Test animals: 3 healthy, 6-8 weeks old male SD rats in each group
A certain amount of drug was weighed, and 0.5% by mass of hypromellose, 0.1% by volume of Tween 80 and 99.4% by volume of water were added thereto to formulate a white suspension at 1 mg/mL.
SD rats were fasted overnight, then the drug was administered by gavage. The dosage of reference 1 was 7.5 mg/kg, and the dosage of Example 1 was 5 mg/kg.
(§6) Rats were administered the compounds of the present invention by gavage. At 0.25, 0.5, 1, 2, 4, 8 and 24 hours after administration, 0.2 mL of blood was collected from the jugular vein and placed in a test tube containing EDTA-K2. The tube was centrifuged at 4° C., 4000 rpm for 5 minutes to separate the plasma, which was stored at −75° C.
Determination of the content of the test compounds in rat plasma after administration of different concentrations of drugs by gavage: 50 μL of rat plasma at each time after administration was taken, and 200 μL of a solution of the internal standard dexamethasone in acetonitrile (50 ng/mL). The mixture was mixed by vortexing for 30 seconds, centrifuged at 4° C., 4700 rpm for 15 minutes. The supernatant of the plasma samples were collected and diluted three times with water, and 2.0 μL was taken for the LC/MS/MS analysis.

[7] = In vivo pharmacokinetics in cynomolgus monkeys (gavage); conditions: male, plasma, po, 5 mg/kg, original drug, cynomolgus monkey, 5 mpk
Procedure: as §5, with “Cynomolgus monkeys” for “Rats”, “cynomolgus monkeys” for “rats”
Test animals: 3 healthy, 2-5 years old male cynomolgus monkeys in each group;
Administration by gavage: a certain amount of drug was weighed, and 0.5% by mass of hypromellose, 0.1% by volume of Tween 80 and 99.4% by volume of water were added thereto to formulate a white suspension at 1 mg/mL.
The cynomolgus monkeys were fasted overnight, and then the drug was administered by gavage at a dose of 5 mg/kg.
as §6, with “Cynomolgus monkeys were” for “Rats were”, “the peripheral” for “the jugular”, “at 2 to 8°” for “at 4°”, “C., 2000” for “C., 4000”, “for 10” for “for 5”
Determination of the content of the test compounds in cynomolgus monkey plasma after administration of different concentrations of drugs by gavage: 55 μL of cynomolgus monkey plasma at each time after administration was taken, and 200 μL of a solution of the internal standard verapamil or dexamethasone in acetonitrile. The mixture was mixed by vortexing for 30 seconds, centrifuged at 4° C., 3900 rpm for 15 minutes. The supernatant of the plasma samples were collected and diluted three times with water, and 15 μL was taken for LC/MS/MS analysis.

[8] = In vitro metabolic stability in rat liver microsomes; format: in vitro ADME; conditions: rat liver microsomes (male Wistar Han), NADPH, 37° C.; read-out: Intrinsic clearance rate
Procedure: The concentration of the compound in the reaction system was determined by LC/MS/MS, so as to calculate the intrinsic clearance rate of the test compound and to evaluate the in vitro metabolic stability in rat liver microsomes.
222.5 μL, 1.1236 mg/mL of a mixed solution of rat liver microsomes (male Wistar Han strain, purchased from Corning, catalog number 452511) and 25 μL, 10 mM of NADPH were added into the incubation plate. The mixture was mixed by vortexing for 10 seconds. The plate was incubated in a water bath at 37° C. for 8 minutes. 2.5 μL, 100 μM of the test compound or positive control was added to the incubation plate to start the reaction. The mixture was mixed by vortexing for 12 seconds, and incubated in a water bath at 37° C. The reaction was stopped by transferring 20 μL of the incubation system to a stop plate containing 100 μL of cold stop solution at 0.5, 5, 10, 15, 20 and 30 minutes. The mixture was mixed by vortexing for 2 minutes. The stop plate was centrifuged at 4000 rpm for 20 minutes, then left to stand at 4° C. for 30 minutes, and then centrifuged at 4000 rpm for 20 minutes. 40 μL of the supernatant of each compound was transferred to a 96-well injection plate, and 160 μL of pure water was added to dilute the samples.
The obtained samples were quantified by ion chromatogram, and the residual rate was calculated according to the peak area of the test compounds or positive control. The slope k was determined by linear regression of the natural logarithm of the residual rate to the incubation time by using Microsoft Excel.
The in vitro half-life (in vitro t1/2) was calculated from the slope: in vitro t1/2=−(0.693/k)
The following equation was used to convert in vitro half-life into intrinsic clearance rate (in vitro CLint, μL/min/mg protein):
in vitro CLint=(0.693/t1/2)×(incubation volume (L)/protein amount (mg))

[9] = molecular target: T5, full-length SHP2 (aa 1-593) (Homo sapiens, UniProt Q06124); assay: Activity on SHP2 phosphatase (DiFMUP fluorescence)
T5 sequence (Q06124 1-593): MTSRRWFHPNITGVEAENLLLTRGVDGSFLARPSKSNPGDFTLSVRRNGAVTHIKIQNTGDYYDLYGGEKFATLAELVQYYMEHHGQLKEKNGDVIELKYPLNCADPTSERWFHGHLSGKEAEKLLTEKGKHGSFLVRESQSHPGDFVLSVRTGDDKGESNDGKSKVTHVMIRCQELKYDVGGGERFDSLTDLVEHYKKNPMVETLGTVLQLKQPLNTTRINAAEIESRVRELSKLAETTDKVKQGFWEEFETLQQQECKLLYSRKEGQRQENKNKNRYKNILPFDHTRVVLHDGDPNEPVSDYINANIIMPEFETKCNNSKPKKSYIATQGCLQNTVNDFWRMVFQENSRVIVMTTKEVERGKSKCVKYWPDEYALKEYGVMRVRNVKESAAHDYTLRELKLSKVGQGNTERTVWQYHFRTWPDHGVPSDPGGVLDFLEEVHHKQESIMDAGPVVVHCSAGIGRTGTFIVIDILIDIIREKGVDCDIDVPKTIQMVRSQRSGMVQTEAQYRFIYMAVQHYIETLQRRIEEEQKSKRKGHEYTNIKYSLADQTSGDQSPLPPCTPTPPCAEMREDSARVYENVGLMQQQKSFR
Procedure: 0.2 nM recombinantly expressed full-length SHP2 (aa 1-593), 0.5 nM activated polypeptide IRS1 with dual phosphorylation sites (sequence: H2N-LN(pY)IDLDLY(dPEG8)LST(pY)ASINFQK-amide), and a series of concentrations of the test compound (final concentrations of 1 μM, 0.3 μM, 0.1 μM, 0.03 μM, 0.01 μM, 0.003 μM, 0.001 M, 0.0003 μM, 0.0001 μM and 0.00003 μM) were added into the phosphatase reaction solution (60 mM HEPES, PH 7.5 0.005% Brij-35, 75 mM NaCl, 75 mM KCl, 1 mM EDTA, 5 mM DTT), followed by shaking (350 rpm) at room temperature for 30 minutes. Then the reaction substrate DiFMUP was added at a final concentration of 30 μM, and the reaction solution was reacted at room temperature for 30 minutes. Then the phosphatase reaction was stopped by adding 5 μL of the reaction stop solution (60 mM HEPES, pH 7.5, 0.2% SDS). Ex358 nm/Em455 fluorescence value was read on the fluorescence plate reader MD SpectraMax.
The IC50 value of compounds was calculated by using the four-parameter logit method. […] Different concentrations correspond to different inhibition rates of phosphatase activity. A reverse curve was plotted and the IC50 of the inhibitors was calculated from the curve. The IC50 of compounds was calculated by using Primer premier 6.0.

T4 sequence (P10635 whole entry): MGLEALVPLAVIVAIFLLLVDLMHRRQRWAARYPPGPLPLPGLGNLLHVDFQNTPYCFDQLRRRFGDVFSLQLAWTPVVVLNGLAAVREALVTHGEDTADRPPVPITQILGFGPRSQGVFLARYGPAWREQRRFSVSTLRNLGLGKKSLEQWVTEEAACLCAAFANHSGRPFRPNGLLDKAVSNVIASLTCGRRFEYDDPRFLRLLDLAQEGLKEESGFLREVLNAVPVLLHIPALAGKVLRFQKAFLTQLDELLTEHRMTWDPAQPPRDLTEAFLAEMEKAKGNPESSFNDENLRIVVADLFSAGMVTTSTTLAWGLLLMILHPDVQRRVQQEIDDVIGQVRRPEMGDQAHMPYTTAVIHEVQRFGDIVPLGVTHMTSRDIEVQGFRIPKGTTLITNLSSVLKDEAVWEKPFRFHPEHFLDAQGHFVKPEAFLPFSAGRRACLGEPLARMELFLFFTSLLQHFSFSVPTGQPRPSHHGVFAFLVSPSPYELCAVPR
T2 sequence (P33261 whole entry): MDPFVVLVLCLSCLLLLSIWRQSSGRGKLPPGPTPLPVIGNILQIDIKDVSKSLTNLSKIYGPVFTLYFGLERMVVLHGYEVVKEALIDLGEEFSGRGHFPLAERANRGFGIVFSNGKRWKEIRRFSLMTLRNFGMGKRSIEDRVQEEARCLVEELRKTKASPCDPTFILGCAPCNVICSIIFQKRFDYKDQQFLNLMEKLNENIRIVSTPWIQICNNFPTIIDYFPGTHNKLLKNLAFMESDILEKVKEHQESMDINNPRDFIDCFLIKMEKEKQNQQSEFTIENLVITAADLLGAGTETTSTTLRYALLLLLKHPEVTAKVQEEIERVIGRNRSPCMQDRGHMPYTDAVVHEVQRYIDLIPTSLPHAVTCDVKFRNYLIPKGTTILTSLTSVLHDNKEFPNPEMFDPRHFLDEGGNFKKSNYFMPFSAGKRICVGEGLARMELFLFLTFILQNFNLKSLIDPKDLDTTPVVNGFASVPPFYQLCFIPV
T3 sequence (P11712 whole entry): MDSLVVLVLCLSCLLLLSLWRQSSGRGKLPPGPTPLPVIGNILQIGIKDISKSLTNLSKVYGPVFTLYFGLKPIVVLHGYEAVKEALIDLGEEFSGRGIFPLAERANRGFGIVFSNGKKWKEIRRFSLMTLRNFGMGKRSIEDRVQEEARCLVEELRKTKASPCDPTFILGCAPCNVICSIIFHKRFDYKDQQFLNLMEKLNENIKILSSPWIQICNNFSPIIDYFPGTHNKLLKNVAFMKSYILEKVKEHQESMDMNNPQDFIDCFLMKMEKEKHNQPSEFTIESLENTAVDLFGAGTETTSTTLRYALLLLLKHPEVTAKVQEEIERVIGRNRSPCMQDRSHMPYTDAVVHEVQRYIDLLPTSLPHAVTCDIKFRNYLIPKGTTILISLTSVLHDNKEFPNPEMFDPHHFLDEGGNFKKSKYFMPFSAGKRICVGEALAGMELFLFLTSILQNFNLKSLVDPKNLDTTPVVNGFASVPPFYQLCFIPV

IC50 [1]: 9.21 µM
IC50 [2]: > 20 µM
IC50 [3]: > 20 µM
IC50 [4]: > 20 µM
IC50 at 5 min [5]: > 20 µM
Compound: Nc1nccc(Sc2cnc(N3CCC4(CC3)Cc3ncccc3[C@H]4N)n3ccnc23)c1Cl [Example 1, (S)-1′-(8-((2-Amino-3-chloropyridin-4-yl)thio)imidazo[1,2-c]pyrimidin-5-yl)-5,7-dihydrospiro[cyclopenta[b]pyridine-6,4′-piperidin]-5-amine]

Compound: CNc1nccc(Sc2c(C)nc(N3CCC4(CC3)Cc3ncccc3[C@H]4N)n3ccnc23)c1Cl [Example 2, (S)-1′-(8-((3-Chloro-2-(methylamino)pyridin-4-yl)thio)-7-methylimidazo[1,2-c]pyrimidin-5-yl)-5,7-dihydrospiro[cyclopenta[b]pyridine-6,4′-piperidin]-5-amine]
AUC ([6]; male, SD, plasma, po, 7.5 mg/kg, read-out: Area under curve AUC): 4250 ng·h/mL
Cmax ([6]; male, SD, plasma, po, 7.5 mg/kg, read-out: Maximum blood conc. Cmax): 500 ng/mL
Area under curve of unit dose AUC/D [6]: 567 ng*h/mL per mg/kg
AUC ([7]; read-out: Area under curve AUC): 71000 ng·h/mL
Cmax ([7]; read-out: Maximum blood conc. Cmax): 12700 ng/mL
microsomal CLint at 1 µM [8]: 19.2 µL/min/mg

Compound: [2H]C([2H])Nc1nccc(Sc2c(C)nc(N3CCC4(CC3)Cc3ncccc3[C@H]4N)n3ccnc23)c1Cl [Example 5, (S)-1′-(8-((3-Chloro-2-((methyl-d2)amino)pyridin-4-yl)thio)-7-methylimidazo[1,2-c]pyrimidin-5-yl)-5,7-dihydrospiro[cyclopenta[b]pyridine-6,4′-piperidin]-5-amine]
IC50 [9]: 0.0048 µM
microsomal CLint at 1 µM [8]: 26.6 µL/min/mg

Compound: [2H]CNc1nccc(Sc2c(C)nc(N3CCC4(CC3)Cc3ncccc3[C@H]4N)n3ccnc23)c1Cl [Example 6, (S)-1′-(8-((3-Chloro-2-((methyl-d)amino)pyridin-4-yl)thio)-7-methylimidazo[1,2-c]pyrimidin-5-yl)-5,7-dihydrospiro[cyclopenta[b]pyridine-6,4′-piperidin]-5-amine]
IC50 [9]: 0.0047 µM
microsomal CLint at 1 µM [8]: 34.7 µL/min/mg
